Laboratory results: patent US20120220563A1, “Substituted piperidines” (BAYER PHARMA AKTIENGESELLSCHAFT, priority 2009, published 2012)

tested on: platelet aggregation in platelet-rich plasma triggered by thrombin receptor agonist (TRAP6, SFLLRN); test: Platelet aggregation in plasma (TRAP6/SFLLRN-triggered, turbidimetry according to Born); format: cell-based; conditions: Homo sapiens, 10 min, platelet-rich plasma of healthy volunteers, 10 min at 37° C. with test substance, concentration which inhibits aggregation by 50%
Method: To determine the platelet aggregation, blood from healthy volunteers of both genders, who had not received any platelet aggregation-influencing medication for the last ten days, is used. The blood is taken up into monovettes (Sarstedt, Nümbrecht, Germany) which contain, as anticoagulant, sodium citrate 3.8% (1 part of citrate+9 parts of blood). To obtain platelet-rich plasma, the citrated whole blood is centrifuged at 140 g for 20 min
For the aggregation measurements, aliquots of the platelet-rich plasma with increasing concentrations of test substance are incubated at 37° C. for 10 min. Subsequently, aggregation is triggered by addition of a thrombin receptor agonist (TRAP6, SFLLRN) in an aggregometer and determined at 37° C. by means of the turbidimetry method according to Born (Born, G. V. R., Cross M. J., The Aggregation of Blood Platelets; J. Physiol. 1963, 168, 178-195). The SFLLRN concentration leading to maximum aggregation is, if appropriate, determined individually for each donor.
To calculate the inhibitory effect, the maximum increase of light transmission (amplitude of the aggregation curve in %) is determined within 5 minutes after addition of the agonist in the presence and absence of test substance, and the inhibition is calculated. The inhibition curves are used to calculate the concentration which inhibits aggregation by 50%.

Row | SMILES | IC50
1 | CCOc1noc(C2CC(c3ccc(CC(F)(F)F)cc3)CN(C(=O)N3CCS(=O)(=O)CC3)C2)n1 (single isomer, unassigned) [Example 69, (1,1-Dioxidothiomorpholin-4-yl) {3-(3-ethoxy-1,2,4-oxadiazol-5-yl)-5-[4-(2,2,2-trifluoroethyl)-phenyl]piperidin-1-yl}methanone] | 250 pM
2 | CCOc1noc(C2CC(c3ccc(CC(F)(F)F)cc3)CN(C(=O)N3CC[S+]([O-])CC3)C2)n1 (single isomer, unassigned) [Example 66, {3-(3-Ethoxy-1,2,4-oxadiazol-5-yl)-5-[4-(2,2,2-trifluoroethyl)phenyl]piperidin-1-yl}(1-oxidothio-morpholin-4-yl)methanone] | 540 pM
3 | CCN(CC)c1noc(C2CC(c3ccc(C(F)(F)F)cc3)CN(C(=O)N3CCOCC3)C2)n1 (single isomer, unassigned) [Example 6, {3-[3-(Diethylamino)-1,2,4-oxadiazol-5-yl]-5-[4-(trifluoromethyl)phenyl]piperidin-1-yl}-(morpholin-4-yl)methanone] | 670 pM
4 | CCOc1noc(C2CC(c3ccc(CC)c(F)c3)CN(C(=O)N3CCS(=O)(=O)CC3)C2)n1 (racemic) [Example 101, (1,1-Dioxidothiomorpholin-4-yl)[3-(3-ethoxy-1,2,4-oxadiazol-5-yl)-5-(4-ethyl-3-fluorophenyl)-piperidin-1-yl]methanone] | 300 pM
5 | CCc1ccc(C2CC(c3nc(OCCOC)no3)CN(C(=O)N3CCS(=O)(=O)CC3)C2)cc1 (single isomer, unassigned) [Example 63, (1,1-Dioxidothiomorpholin-4-yl){3-(4-ethylphenyl)-5-[3-(2-methoxyethoxy)-1,2,4-oxadiazol-5-yl]-piperidin-1-yl}-methanone] | 240 pM
